Source: patent US20180271823A1, “SULFUR-BASED BROAD SPECTRUM ANTIVIRALS” (priority 2017, published 2018)

Assays:
[1] = tested on: pseudotyped NiV/VSV virus (pNiV); type: cell-based, Nipah virus
[2] = tested on: some paramyxoviruses and pneumoviruses; conditions: cited from earlier work
HSV-1 KOS = type: cell-based
[3] = tested on: Human respiratory syncytial virus (RSV A2 strain); assay: Plaque assay for RSV infections; type: cell-based
[4] = tested on: vesicular stomatitis virus (VSV); type: cell-based
Influenza virus = type: cell-based
[5] = tested on: bovine rotavirus strain NCDV; assay: Rotavirus infection assay in MA104 cells; type: cell-based
[6] = tested on: 293T cells transfected with NiV F and G; type: cell-based
[7] = tested on: NiV F and G glycoproteins; type: cell-based
pNiV viral membrane [8] = tested on: pNiV viral membrane; parameters: species or system NiV
pNiV viral membrane [9] = tested on: pNiV viral membrane; parameters: species or system NiV; remark: listed apart in the source
NiV G glycoprotein = NiV G glycoprotein (Nipah virus, UniProt Q9IH62)
Sequence of NiV G glycoprotein (Q9IH62 whole entry, looked up): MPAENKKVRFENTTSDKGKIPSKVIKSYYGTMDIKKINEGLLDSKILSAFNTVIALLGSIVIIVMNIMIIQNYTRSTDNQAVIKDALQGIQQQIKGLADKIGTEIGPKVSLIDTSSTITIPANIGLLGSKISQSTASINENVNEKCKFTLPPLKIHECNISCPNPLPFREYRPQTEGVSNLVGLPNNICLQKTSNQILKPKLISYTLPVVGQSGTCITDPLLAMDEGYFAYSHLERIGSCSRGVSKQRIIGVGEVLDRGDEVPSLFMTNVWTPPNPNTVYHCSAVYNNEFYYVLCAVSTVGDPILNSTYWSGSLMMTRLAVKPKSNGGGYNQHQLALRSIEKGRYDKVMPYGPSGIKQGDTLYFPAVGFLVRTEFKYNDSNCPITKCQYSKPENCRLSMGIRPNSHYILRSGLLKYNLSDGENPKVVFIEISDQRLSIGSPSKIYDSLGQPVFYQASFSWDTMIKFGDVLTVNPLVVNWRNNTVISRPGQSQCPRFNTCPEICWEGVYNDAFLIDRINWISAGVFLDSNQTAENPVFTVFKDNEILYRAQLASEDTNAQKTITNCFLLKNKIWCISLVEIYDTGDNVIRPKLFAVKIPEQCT

NiV F protein = NiV F protein (Nipah virus, UniProt Q9IH63)
Sequence of NiV F protein (Q9IH63 110-546 limits assumed): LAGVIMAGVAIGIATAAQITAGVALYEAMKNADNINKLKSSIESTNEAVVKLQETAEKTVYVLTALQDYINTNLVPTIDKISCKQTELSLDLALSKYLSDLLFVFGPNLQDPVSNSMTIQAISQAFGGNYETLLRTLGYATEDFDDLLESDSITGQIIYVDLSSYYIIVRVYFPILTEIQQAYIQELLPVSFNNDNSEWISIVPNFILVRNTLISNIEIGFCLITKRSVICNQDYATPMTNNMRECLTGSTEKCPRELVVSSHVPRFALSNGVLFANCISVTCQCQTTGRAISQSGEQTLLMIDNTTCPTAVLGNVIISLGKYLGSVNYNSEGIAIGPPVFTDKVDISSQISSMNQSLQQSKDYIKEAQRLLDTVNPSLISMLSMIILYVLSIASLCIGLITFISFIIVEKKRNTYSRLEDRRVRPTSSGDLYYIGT
Sequence of NiV F protein (Q9IH63 27-109 limits assumed): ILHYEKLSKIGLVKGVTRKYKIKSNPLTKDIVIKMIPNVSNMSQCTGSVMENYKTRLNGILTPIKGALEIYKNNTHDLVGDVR

[10] = target: NiV F and NiV G on pseudotyped NiV virions (Nipah virus, UniProt Q9IH62+Q9IH63)
Vero cells = assay: Cytotoxicity / cell viability assay (CCK-8)

Question: With `CC(=O)NC(CSSC(=O)c1ccccc1)C(=O)NCc1ccccc1` (centres unmarked) [XM-02] as the compound, how does the inhibitory properties [1] read?
Answer: high inhibitory properties

Question: Which EC50 [2] does the source give for `C1COCCN1.COc1ccc(P(=S)(S)N2CCOCC2)cc1` (centres unmarked) [GYY4137] here?
Answer: 10 mM

Question: For `COC(=O)C(CSC(=O)c1ccccc1)NC(=O)c1ccccc1` (centres unmarked) [XM-10], which inhibitory properties [1] is on record?
Answer: high inhibitory properties

Question: Which inhibitory properties [1] does the source give for `COC(=O)C(CSC(C)=O)NC(=O)c1ccccc1` (centres unmarked) [XM-11] here?
Answer: high inhibitory properties

Question: With `COC(=O)C(CSSC(C)=O)NC(=O)c1ccccc1` (centres unmarked) [XM-03] as the compound, how does the inhibitory properties [1] read?
Answer: high inhibitory properties

Question: What does the source list for `COC(=O)C(CSSC(=O)c1ccccc1)NC(=O)c1ccccc1` (centres unmarked) [XM-01]?
Answer: capability of treated virions to infect Vero cells [1]: highly inhibited; inhibition when added after infection (time of addition) [1]: completely incapable of inhibiting the virus; inhibitory activity in the absence of light [1]: did not need light to inhibit pNiV infections; inhibitory properties [1]: high inhibitory properties; potency as antiviral inhibitor compared with NaHS or GYY4137 [1]: much more potent; viral infection of pretreated cells [1]: did not significantly reduce viral infection; inhibition of infectivity ([1]; 10 μM): high inhibition of infectivity; EC50 ([1]; read-out: EC50 (inhibitory concentration, pNiV system)): ~1000 nM; HSV-1 plaque formation (HSV-1 KOS): inhibit HSV-1 plaque formation in a concentration-dependent fashion; RSV infection [3]: inhibited; VSV infection [4]: inhibited; Influenza virus infection (Influenza virus): inhibited; non-enveloped rotavirus infection [5]: no significant inhibition; cell to cell fusion [6]: inhibit cell to cell fusion; protein G or F expression on cell surfaces [7]: neither XM-01 at 10 μM nor LJ001 at 1 μM significantly affect; RNA spill from virions (TEM) (pNiV viral membrane [8]): RNA spilled more frequently; viral membrane appearance (TEM) (pNiV viral membrane [8]): compromised viral membrane; ratio of excimer to monomer (membrane fluidity) (pNiV viral membrane [9]): considerably lower ratio of excimers to monomers; ephrinB2 receptor binding ability of NiV G (NiV G glycoprotein): did not interfere; NiV-F protein triggering (NiV F protein): not decreased; glycoprotein conformations (antibody binding to NiV F or NiV G) [10]: no significant changes in antibody binding; cytotoxicity (Vero cells; 1, 3, and 10 μM): low cytotoxicity; difference between inhibitory and cytotoxic concentrations (Vero cells; EC50 pNiV vs CC50): ~3 log; CC50 (Vero cells; Vero cells, 1 μM-1 mM, calculated using Graphpad Prism): ~1 mM
